Laboratory results published in the NIST ThermoML archive (doi:10.1016/j.jct.2013.09.008).
± gives the expanded uncertainty stated by the source.

Experiment: mn = molality of the nth substance listed, in mol/kg
Settings: 101.33 kPa, Liquid; for speed of sound: Frequency=3 MHz, Linear variable-path acoustic interferometer; for mass density: Pycnometric method; for viscosity: Capillary tube (Ostwald / Ubbelohde) method

N[C@@H](Cc1ccccc1)C(=O)O [L-phenylalanine] + O
Settings | mass density [kg/m3] | speed of sound [m/s] | viscosity [mPa·s]
293.15 K, m1 = 0.0249 | 999.4 ± 0.35 | 1488.8 ± 2.5 | –
293.15 K, m1 = 0.0498 | 1000.55 ± 0.35 | 1493 ± 2.5 | –
293.15 K, m1 = 0.0749 | 1001.71 ± 0.35 | 1496.2 ± 2.5 | –
293.15 K, m1 = 0.0999 | 1002.88 ± 0.35 | 1498.3 ± 2.5 | –
293.15 K, m1 = 0.125 | 1004.04 ± 0.35 | 1499.4 ± 2.5 | –
293.15 K, m1 = 0.1499 | 1005.2 ± 0.35 | 1499.4 ± 2.5 | –
298.15 K, m1 = 0.0249 | 998.23 ± 0.37 | 1501.9 ± 2.5 | 0.9038 ± 0.019
298.15 K, m1 = 0.0498 | 999.39 ± 0.37 | 1505.9 ± 2.5 | 0.9168 ± 0.019
298.15 K, m1 = 0.0749 | 1000.55 ± 0.37 | 1509 ± 2.5 | 0.9299 ± 0.02
298.15 K, m1 = 0.0999 | 1001.72 ± 0.37 | 1511 ± 2.5 | 0.9431 ± 0.02
298.15 K, m1 = 0.125 | 1002.88 ± 0.37 | 1512 ± 2.5 | 0.9561 ± 0.02
298.15 K, m1 = 0.1499 | 1004.05 ± 0.37 | 1511.9 ± 2.5 | 0.9691 ± 0.021
303.15 K, m1 = 0.0249 | 996.84 ± 0.4 | 1513.1 ± 2.5 | 0.8083 ± 0.017
303.15 K, m1 = 0.0498 | 998 ± 0.4 | 1516.8 ± 2.5 | 0.819 ± 0.017
303.15 K, m1 = 0.0749 | 999.17 ± 0.4 | 1519.5 ± 2.5 | 0.8294 ± 0.018
303.15 K, m1 = 0.0999 | 1000.34 ± 0.4 | 1521.2 ± 2.5 | 0.8399 ± 0.018
303.15 K, m1 = 0.125 | 1001.51 ± 0.4 | 1521.8 ± 2.5 | 0.8505 ± 0.018
303.15 K, m1 = 0.1499 | 1002.68 ± 0.4 | 1521.3 ± 2.5 | 0.8605 ± 0.018
308.15 K, m1 = 0.0249 | 995.24 ± 0.43 | 1524.1 ± 2.5 | 0.7285 ± 0.015
308.15 K, m1 = 0.0498 | 996.4 ± 0.43 | 1527.4 ± 2.5 | 0.7372 ± 0.016
308.15 K, m1 = 0.0749 | 997.58 ± 0.43 | 1529.8 ± 2.5 | 0.7462 ± 0.016
308.15 K, m1 = 0.0999 | 998.75 ± 0.43 | 1531.1 ± 2.5 | 0.7545 ± 0.016
308.15 K, m1 = 0.125 | 999.92 ± 0.43 | 1531.4 ± 2.5 | 0.7635 ± 0.016
308.15 K, m1 = 0.1499 | 1001.09 ± 0.43 | 1530.6 ± 2.5 | 0.7722 ± 0.016
313.15 K, m1 = 0.0249 | 993.43 ± 0.46 | 1530.8 ± 2.5 | 0.6607 ± 0.014
313.15 K, m1 = 0.0498 | 994.6 ± 0.46 | 1533.8 ± 2.5 | 0.668 ± 0.014
313.15 K, m1 = 0.0749 | 995.78 ± 0.46 | 1535.8 ± 2.5 | 0.6749 ± 0.014
313.15 K, m1 = 0.0999 | 996.96 ± 0.46 | 1536.8 ± 2.5 | 0.682 ± 0.015
313.15 K, m1 = 0.125 | 998.14 ± 0.46 | 1536.7 ± 2.5 | 0.6897 ± 0.015
313.15 K, m1 = 0.1499 | 999.32 ± 0.46 | 1535.7 ± 2.5 | 0.6968 ± 0.015
318.15 K, m1 = 0.0249 | 991.43 ± 0.48 | 1536.5 ± 2.5 | 0.604 ± 0.013
318.15 K, m1 = 0.0498 | 992.61 ± 0.48 | 1539.1 ± 2.5 | 0.6102 ± 0.013
318.15 K, m1 = 0.0749 | 993.8 ± 0.48 | 1540.8 ± 2.5 | 0.616 ± 0.013
318.15 K, m1 = 0.0999 | 994.98 ± 0.48 | 1541.5 ± 2.5 | 0.622 ± 0.013
318.15 K, m1 = 0.125 | 996.17 ± 0.48 | 1541.3 ± 2.5 | 0.6285 ± 0.013
318.15 K, m1 = 0.1499 | 997.36 ± 0.48 | 1540 ± 2.5 | 0.6346 ± 0.013
